Patent US10245264B2, “Substituted imidazo[1,2-a]pyrazines as soluble guanylate cyclase activators” (Merck Sharp & Dohme Corp., priority 2015, dated 2019)

Target: T1, sGC α1/β1 heterodimer stably expressed in CHO-K1 cells (CHO-K1/sGC) (Homo sapiens, UniProt Q02108+Q02153)
T1 construct: expressed in transfected cells
T1 sequence (Q02108 1-690): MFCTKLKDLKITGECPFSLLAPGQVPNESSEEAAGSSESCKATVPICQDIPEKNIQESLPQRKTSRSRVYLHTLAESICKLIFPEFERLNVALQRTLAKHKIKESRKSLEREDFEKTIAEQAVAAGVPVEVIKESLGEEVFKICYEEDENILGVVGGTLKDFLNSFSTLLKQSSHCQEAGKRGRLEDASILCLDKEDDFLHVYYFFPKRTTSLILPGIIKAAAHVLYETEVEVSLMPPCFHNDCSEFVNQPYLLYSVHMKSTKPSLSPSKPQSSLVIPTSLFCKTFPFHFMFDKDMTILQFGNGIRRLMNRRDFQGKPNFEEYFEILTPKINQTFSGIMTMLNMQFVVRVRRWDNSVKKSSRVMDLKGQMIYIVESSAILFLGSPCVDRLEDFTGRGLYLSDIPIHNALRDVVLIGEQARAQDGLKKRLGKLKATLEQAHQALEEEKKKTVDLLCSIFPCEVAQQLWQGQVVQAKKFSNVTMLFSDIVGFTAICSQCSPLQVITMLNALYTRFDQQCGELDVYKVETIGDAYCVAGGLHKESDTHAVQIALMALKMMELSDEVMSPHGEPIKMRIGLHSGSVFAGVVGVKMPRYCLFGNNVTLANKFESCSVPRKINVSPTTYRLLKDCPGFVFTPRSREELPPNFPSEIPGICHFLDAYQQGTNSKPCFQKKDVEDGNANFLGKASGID
T1 sequence (Q02153 1-619): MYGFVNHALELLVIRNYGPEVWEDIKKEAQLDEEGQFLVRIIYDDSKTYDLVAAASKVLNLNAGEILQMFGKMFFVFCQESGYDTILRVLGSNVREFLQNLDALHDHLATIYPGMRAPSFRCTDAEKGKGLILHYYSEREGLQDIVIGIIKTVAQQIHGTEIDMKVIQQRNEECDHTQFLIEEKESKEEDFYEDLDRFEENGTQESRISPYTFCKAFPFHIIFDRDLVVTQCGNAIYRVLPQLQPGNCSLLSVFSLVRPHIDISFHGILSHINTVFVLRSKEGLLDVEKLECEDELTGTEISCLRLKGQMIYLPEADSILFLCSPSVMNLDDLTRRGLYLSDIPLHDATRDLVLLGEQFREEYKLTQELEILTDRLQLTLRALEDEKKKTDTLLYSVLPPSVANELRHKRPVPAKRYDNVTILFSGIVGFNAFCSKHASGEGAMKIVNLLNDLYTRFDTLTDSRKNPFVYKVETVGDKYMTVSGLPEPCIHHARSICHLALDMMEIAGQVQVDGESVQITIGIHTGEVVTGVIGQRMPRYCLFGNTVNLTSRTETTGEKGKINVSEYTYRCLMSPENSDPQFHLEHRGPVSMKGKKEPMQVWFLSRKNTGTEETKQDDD
Experiment: Cell-based sGC functional assay (CASA assay), cGMP generation by HTRF
Details: for Emax: CHO-K1, maximum cGMP production of Compound A set to 100% activation, read-out: % Act. (percent activation relative to Compound A); for EC50: CHO-K1/sGC cells, 1 hr at 37° C., 4P fit, presence or absence of DETA-NO not given, read-out: IP (nM) (inflection point)
Procedure, shortened: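 CHO-K1/sGC cells (4×10^5/mL) in EBSS with 5 mM MgCl2, 10 mM HEPES, 0.05% BSA and 0.5 mM IBMX, treated 1 hr at 37° C with compounds (2.5% DMSO) with or without 1 μM DETA-NO. cGMP measured by HTRF, expressed as % of a reference heme-dependent activator's maximum; inflection point and fold induction from 4P fit.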

Emax | EC50 | % Act. (percent activation relative to Compound A) (maximum cGMP production of Compound A set to 100% activation) | Compound
137% | 1060 nM |  | CC1(c2ccc(F)cc2)C(=O)Nc2nc(-c3cn4ccnc4c(Oc4cncc(C(F)(F)F)c4)n3)nc(N)c21 (stereo not shown) [Example 21A, 4-amino-5-(4-fluorophenyl)-5-methyl-2-(8-{[5-(trifluoromethyl)pyridin-3-yl]oxy}imidazo[1,2-a]pyrazin-6-yl)-5,7-dihydro-6H-pyrrolo[2,3-d] pyrimidin-6-one]
100% | 17 nM |  | CC1(c2ccc(F)cc2)C(=O)Nc2nc(-c3cn4ccnc4c(Oc4cc(F)cc(F)c4F)n3)nc(N)c21 (stereo not shown) [Example 17A, 4-amino-5-(4-fluorophenyl)-5-methyl-2-[8-(2,3,5-trifluorophenoxy)imidazo[1,2-a]pyrazin-6-yl]-5,7-dihydro-6H-pyrrolo [2,3-d]pyrimidin-6-one]
97% | 32 nM |  | CC1(c2ccc(F)cc2)C(=O)Nc2nc(-c3cn4ccnc4c(Oc4cc(F)ccc4F)n3)nc(N)c21 (stereo not shown) [Example 25A, 4-amino-2-[8-(2,5-difluorophenoxy)imidazo[1,2-a]pyrazin-6-yl]-5-(4-fluorophenyl)-5-methyl-5,7-dihydro-6H-pyrrolo[2,3-d] pyrimidin-6-one]
104% | 138 nM |  | CC1(c2ccccc2)C(=O)Nc2nc(-c3cn4ccnc4c(Oc4ccc(F)c(F)c4F)n3)nc(N)c21 (stereo not shown) [Example 11B, 4-amino-5-methyl-5-phenyl-2-[8-(2,3,4-trifluoro-phenoxy)imidazo [1,2-a]pyrazin-6-yl]-5,7-dihydro-6H-pyrrolo[2,3-d] pyrimidin-6-one]
109% | 42 nM |  | CC1(c2ccc(F)cc2)C(=O)Nc2nc(-c3cn4ccnc4c(Oc4ccc(F)cc4)n3)nc(N)c21 (stereo not shown) [Example 20A, 4-amino-2-[8-(4-fluorophenoxy)imidazo[1,2-a]pyrazin-6-yl]-5-(4-fluorophenyl)-5-methyl-5,7-dihydro-6H-pyrrolo[2,3-d] pyrimidin-6-one]
98% | 10 nM |  | CC1(c2ccc(F)cc2)C(=O)Nc2nc(-c3cn4ccnc4c(Oc4ccc(F)c(F)c4)n3)nc(N)c21 (stereo not shown) [Example 18A, 4-amino-2-[8-(3,4-difluorophenoxy)imidazo[1,2-a]pyrazin-6-yl]-5-(4-fluorophenyl)-5-methyl-5,7-dihydro-6H-pyrrolo[2,3-d] pyrimidin-6-one]

Further lines, the compound ahead of its results:

Compound | Emax | EC50 | % Act. (percent activation relative to Compound A) (maximum cGMP production of Compound A set to 100% activation)
CC1(c2ccccc2)C(=O)Nc2nc(-c3cn4ccnc4c(Oc4cc(F)cc(F)c4F)n3)nc(N)c21 (stereo not shown) [Example 12B, 4-amino-5-methyl-5-phenyl-2-[8-(2,3,5-trifluoro-phenoxy)imidazo [1,2-a]pyrazin-6-yl]-5,7-dihydro-6H-pyrrolo[2,3-d] pyrimidin-6-one] | 99% | 47 nM | 
CC1(c2ccc(Cl)cc2)C(=O)Nc2nc(-c3cn4ccnc4c(NCC4CC4(C)C)n3)nc(N)c21 (stereo not shown) [Example 56A, 4-amino-5-(4-chlorophenyl)-2-(8-{[(2,2-dimethylcyclo-propyl)methyl]amino}imidazo [1,2-a]pyrazin-6-yl)-5-methyl-5,7-dihydro-6H-pyrrolo [2,3-d]pyrimidin-6-one] | 110% | 51 nM | 
CC1(c2ccc(Cl)cc2)C(=O)Nc2nc(-c3cn4ccnc4c(NCC4CC(F)(F)C4)n3)nc(N)c21 (stereo not shown) [Example 58A, 4-amino-5-(4-chlorophenyl)-2-(8-{[(3,3-difluorocyclo-butyl)methyl]amino}imidazo [1,2-a]pyrazin-6-yl)-5-methyl-5,7-dihydro-6H-pyrrolo[2,3-d] pyrimidin-6-one] | 109% | 163 nM | 
CC1(c2ccccc2)C(=O)Nc2nc(-c3cn4ccnc4c(OCC(F)(F)C(F)(F)F)n3)nc(N)c21 (stereo not shown) [Example 3B, 4-amino-5-methyl-2-[8-(2,2,3,3,3-pentafluoropropoxy)imidazo[1,2-a]pyrazin-6-yl]-5-phenyl-5,7-dihydro-6H-pyrrolo [2,3-d]pyrimidin-6-one] | 97% | 416 nM | 
CCCC(C)Oc1nc(-c2nc(N)c3c(n2)NC(=O)C3(C)c2ccc(F)cc2)cn2ccnc12 (racemic) [Example 65A, 4-amino-5-(4-fluorophenyl)-5-methyl-2-[8-(1-methyl-butoxy)imidazo [1,2-a]pyrazin-6-yl]-5,7-dihydro-6H-pyrrolo[2,3-d] pyrimidin-6-one] | 101% | 461 nM | 
CC1(C)C(=O)Nc2nc(-c3cn4ccnc4c(Oc4cc(F)ccc4F)n3)nc(N)c21 [Example 26, 4-amino-2-[8-(2,5-difluorophenoxy)imidazo[1,2-a]pyrazin-6-yl]-5,5-dimethyl-5,7-dihydro-6H-pyrrolo[2,3-d] pyrimidin-6-one] | 105% | 718 nM | 
CC1(c2ccccc2)C(=O)Nc2nc(-c3cn4ccnc4c(Oc4cccc(F)c4)n3)nc(N)c21 (stereo not shown) [Example 8B, 4-amino-2-[8-(3-fluorophenoxy)imidazo[1,2-a]pyrazin-6-yl]-5-methyl-5-phenyl-5,7-dihydro-6H-pyrrolo[2,3-d] pyrimidin-6-one] | 110% | 22 nM | 
CC1(c2ccc(Cl)cc2)C(=O)Nc2nc(-c3cn4ccnc4c(OCC4CCCOC4)n3)nc(N)c21 (single isomer, unassigned; slow eluting) [Example 67B, 4-amino-5-(4-chlorophenyl)-5-methyl-2-[8-(tetrahydro-2H-pyran-3-ylmethoxy)imidazo[1,2-a]pyrazin-6-yl]-5,7-dihydro-6H-pyrrolo [2,3-d] pyrimidin-6-one (slow eluting)] |  | 501 nM | 94%
CC1(c2ccc(F)cc2)C(=O)Nc2nc(-c3cn4cc(C(F)(F)F)nc4c(Oc4cccc(F)c4F)n3)nc(N)c21 (stereo not shown) [Example 37A, 4-amino-2-(8-(2,3-difluoro-phenoxy)-2-(trifluoromethyl)imidazo[1,2-a]pyrazin-6-yl)-5-(4-fluorophenyl)-5-methyl-5H-pyrrolo[2,3-d] pyrimidin-6(7H)-one] | 83% | 719 nM | 
CC(CNc1nc(-c2nc(N)c3c(n2)NC(=O)C3(C)c2ccc(F)cc2)cn2ccnc12)C(F)(F)F (racemic) [Example 70, 4-amino-5-(4-fluorophenyl)-5-methyl-2-{8-[(3,3,3-trifluoro-2-methylpropyl)amino]imidazo [1,2-a]pyrazin-6-yl}-5,7-dihydro-6H-pyrrolo[2,3-d] pyrimidin-6-one] | 89% | 291 nM | 
CC1(c2ccc(F)cc2)C(=O)Nc2nc(-c3cn4ccnc4c(OCCC4CC4)n3)nc(N)c21 (stereo not shown) [Example 44A, 4-amino-2-[8-(2-cyclopropyl-ethoxy)imidazo [1,2-a]pyrazin-6-yl]-5-(4-fluorophenyl)-5-methyl-5,7-dihydro-6H-pyrrolo[2,3-d] pyrimidin-6-one] | 100% | 60 nM | 
